Assay results: ChEMBL document CHEMBL1154708, “Identification of a brain penetrant PDE9A inhibitor utilizing prospective design and chemical enablement as a rapid lead optimization strategy” (J Med Chem, 2009)
pIC50: −log10 of the molar value.

How the values were obtained:
[1] = target: T1, High affinity cGMP-specific 3',5'-cyclic phosphodiesterase 9A (Homo sapiens, UniProt O76083); experiment: Inhibition of human recombinant PDE9A expressed in Sf9 cells by SPA; details: for pIC50: read-out: IC50
[2] = target: Dual specificity calcium/calmodulin-dependent 3',5'-cyclic nucleotide phosphodiesterase 1C (Homo sapiens, UniProt Q14123); experiment: Inhibition of human recombinant PDE1C expressed in Sf9 cells by SPA
[3] = Inhibition of PDE2
[4] = target: cGMP-inhibited 3',5'-cyclic phosphodiesterase 3A (Homo sapiens, UniProt Q14432); experiment: Inhibition of PDE3A
[5] = target: 3',5'-cyclic-AMP phosphodiesterase 4C (Homo sapiens, UniProt Q08493); experiment: Inhibition of PDE4C
[6] = target: cGMP-specific 3',5'-cyclic phosphodiesterase (Homo sapiens, UniProt O76074); experiment: Inhibition of PDE5
[7] = Inhibition of PDE6
[8] = target: 3',5'-cyclic-AMP phosphodiesterase 7B (Homo sapiens, UniProt Q9NP56); experiment: Inhibition of PDE7B
[9] = target: High affinity cAMP-specific and IBMX-insensitive 3',5'-cyclic phosphodiesterase 8B (Homo sapiens, UniProt O95263); experiment: Inhibition of PDE8B
[10] = target: cAMP and cAMP-inhibited cGMP 3',5'-cyclic phosphodiesterase 10A (Homo sapiens, UniProt Q9Y233); experiment: Inhibition of PDE10
[11] = target: Dual 3',5'-cyclic-AMP and -GMP phosphodiesterase 11A (Homo sapiens, UniProt Q9HCR9); experiment: Inhibition of PDE11
[12] = Ratio of drug level in brain to plasma of rat; type: ADME, cell-free; details: brain and plasma
Mus musculus [13] = experiment: Increase in cGMP level in sc dosed CD1 mouse striatum after 30 mins; type: functional, organism-based
Mus musculus [14] = experiment: Increase in cGMP level in CD1 mouse striatum at 3.2 mg/kg, sc after 30 mins; type: functional; details: route subcutaneous
Mus musculus [15] = experiment: Increase in […] level in CD1 mouse striatum at 10 mg/kg, sc after 30 mins; type: functional; details: route subcutaneous
Mus musculus [16] = experiment: Increase in […] level in CD1 mouse striatum at 0.32 mg/kg, sc after 30 mins; type: functional; details: route subcutaneous
Mus musculus [17] = experiment: Increase in […] level in CD1 mouse striatum at 1 mg/kg, sc after 30 mins; type: functional; details: route subcutaneous
[18] = target: T1, High affinity cGMP-specific 3',5'-cyclic phosphodiesterase 9A; experiment: Binding affinity to PDE9A

T1 sequence (O76083 whole entry): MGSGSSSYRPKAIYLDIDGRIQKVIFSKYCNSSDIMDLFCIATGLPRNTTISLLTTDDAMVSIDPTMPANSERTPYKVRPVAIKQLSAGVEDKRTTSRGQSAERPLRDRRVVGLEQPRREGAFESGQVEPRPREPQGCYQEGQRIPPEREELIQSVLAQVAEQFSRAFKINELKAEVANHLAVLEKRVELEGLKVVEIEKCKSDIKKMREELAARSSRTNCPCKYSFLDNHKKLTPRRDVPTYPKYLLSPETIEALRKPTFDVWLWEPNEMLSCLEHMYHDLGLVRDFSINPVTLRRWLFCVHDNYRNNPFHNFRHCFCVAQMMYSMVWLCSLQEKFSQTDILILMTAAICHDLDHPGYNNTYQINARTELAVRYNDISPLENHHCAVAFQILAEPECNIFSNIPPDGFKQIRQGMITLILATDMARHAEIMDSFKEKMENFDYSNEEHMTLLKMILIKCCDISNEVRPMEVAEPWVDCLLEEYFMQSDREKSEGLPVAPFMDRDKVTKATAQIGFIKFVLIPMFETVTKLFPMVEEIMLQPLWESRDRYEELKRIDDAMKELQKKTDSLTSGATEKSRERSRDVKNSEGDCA
Sequence of Dual specificity calcium/calmodulin-dependent 3',5'-cyclic nucleotide phosphodiesterase 1C (Q14123 whole entry): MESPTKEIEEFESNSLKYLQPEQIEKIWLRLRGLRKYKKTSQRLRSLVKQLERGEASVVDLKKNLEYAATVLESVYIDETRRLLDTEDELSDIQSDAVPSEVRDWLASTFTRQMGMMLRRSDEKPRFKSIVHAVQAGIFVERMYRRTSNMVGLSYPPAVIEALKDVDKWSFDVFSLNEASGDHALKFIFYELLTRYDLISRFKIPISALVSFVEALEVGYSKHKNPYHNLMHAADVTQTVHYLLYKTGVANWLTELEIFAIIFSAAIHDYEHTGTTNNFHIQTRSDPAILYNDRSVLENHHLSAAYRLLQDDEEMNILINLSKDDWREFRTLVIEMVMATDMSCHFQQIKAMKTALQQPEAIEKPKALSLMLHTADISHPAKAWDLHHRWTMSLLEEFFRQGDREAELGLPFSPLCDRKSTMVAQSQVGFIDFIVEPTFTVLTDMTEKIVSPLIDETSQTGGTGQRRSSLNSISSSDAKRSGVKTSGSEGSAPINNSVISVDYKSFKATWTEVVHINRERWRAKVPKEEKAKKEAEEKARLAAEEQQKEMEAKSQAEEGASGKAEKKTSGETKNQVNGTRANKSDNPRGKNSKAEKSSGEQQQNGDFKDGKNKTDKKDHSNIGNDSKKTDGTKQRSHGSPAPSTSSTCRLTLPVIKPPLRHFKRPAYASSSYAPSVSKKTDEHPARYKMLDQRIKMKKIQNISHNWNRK
Sequence of Dual 3',5'-cyclic-AMP and -GMP phosphodiesterase 11A (Q9HCR9 whole entry): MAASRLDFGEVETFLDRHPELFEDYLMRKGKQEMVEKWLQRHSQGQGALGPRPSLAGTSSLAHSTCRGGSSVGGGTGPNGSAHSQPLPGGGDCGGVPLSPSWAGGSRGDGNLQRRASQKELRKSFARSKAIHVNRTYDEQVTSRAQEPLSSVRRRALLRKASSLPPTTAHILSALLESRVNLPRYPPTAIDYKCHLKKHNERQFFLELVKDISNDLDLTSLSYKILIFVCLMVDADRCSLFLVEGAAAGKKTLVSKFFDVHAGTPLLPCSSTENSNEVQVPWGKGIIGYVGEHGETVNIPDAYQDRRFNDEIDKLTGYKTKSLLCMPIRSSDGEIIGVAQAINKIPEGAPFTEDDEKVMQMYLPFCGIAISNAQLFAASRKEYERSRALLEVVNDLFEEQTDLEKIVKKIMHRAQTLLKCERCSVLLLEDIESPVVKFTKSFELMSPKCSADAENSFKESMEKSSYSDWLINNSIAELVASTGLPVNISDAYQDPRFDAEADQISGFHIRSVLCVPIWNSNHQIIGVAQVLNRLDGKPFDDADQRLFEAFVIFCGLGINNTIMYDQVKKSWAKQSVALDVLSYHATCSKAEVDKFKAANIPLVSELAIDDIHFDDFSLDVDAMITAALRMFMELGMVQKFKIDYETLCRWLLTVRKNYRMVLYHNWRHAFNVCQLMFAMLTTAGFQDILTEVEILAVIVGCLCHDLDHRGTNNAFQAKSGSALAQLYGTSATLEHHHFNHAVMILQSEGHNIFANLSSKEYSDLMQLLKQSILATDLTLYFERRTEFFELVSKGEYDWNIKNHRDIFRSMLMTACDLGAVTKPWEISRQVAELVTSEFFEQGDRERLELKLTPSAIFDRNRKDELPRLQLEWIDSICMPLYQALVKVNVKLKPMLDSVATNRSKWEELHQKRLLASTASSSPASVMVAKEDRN
Sequence of cAMP and cAMP-inhibited cGMP 3',5'-cyclic phosphodiesterase 10A (Q9Y233 whole entry): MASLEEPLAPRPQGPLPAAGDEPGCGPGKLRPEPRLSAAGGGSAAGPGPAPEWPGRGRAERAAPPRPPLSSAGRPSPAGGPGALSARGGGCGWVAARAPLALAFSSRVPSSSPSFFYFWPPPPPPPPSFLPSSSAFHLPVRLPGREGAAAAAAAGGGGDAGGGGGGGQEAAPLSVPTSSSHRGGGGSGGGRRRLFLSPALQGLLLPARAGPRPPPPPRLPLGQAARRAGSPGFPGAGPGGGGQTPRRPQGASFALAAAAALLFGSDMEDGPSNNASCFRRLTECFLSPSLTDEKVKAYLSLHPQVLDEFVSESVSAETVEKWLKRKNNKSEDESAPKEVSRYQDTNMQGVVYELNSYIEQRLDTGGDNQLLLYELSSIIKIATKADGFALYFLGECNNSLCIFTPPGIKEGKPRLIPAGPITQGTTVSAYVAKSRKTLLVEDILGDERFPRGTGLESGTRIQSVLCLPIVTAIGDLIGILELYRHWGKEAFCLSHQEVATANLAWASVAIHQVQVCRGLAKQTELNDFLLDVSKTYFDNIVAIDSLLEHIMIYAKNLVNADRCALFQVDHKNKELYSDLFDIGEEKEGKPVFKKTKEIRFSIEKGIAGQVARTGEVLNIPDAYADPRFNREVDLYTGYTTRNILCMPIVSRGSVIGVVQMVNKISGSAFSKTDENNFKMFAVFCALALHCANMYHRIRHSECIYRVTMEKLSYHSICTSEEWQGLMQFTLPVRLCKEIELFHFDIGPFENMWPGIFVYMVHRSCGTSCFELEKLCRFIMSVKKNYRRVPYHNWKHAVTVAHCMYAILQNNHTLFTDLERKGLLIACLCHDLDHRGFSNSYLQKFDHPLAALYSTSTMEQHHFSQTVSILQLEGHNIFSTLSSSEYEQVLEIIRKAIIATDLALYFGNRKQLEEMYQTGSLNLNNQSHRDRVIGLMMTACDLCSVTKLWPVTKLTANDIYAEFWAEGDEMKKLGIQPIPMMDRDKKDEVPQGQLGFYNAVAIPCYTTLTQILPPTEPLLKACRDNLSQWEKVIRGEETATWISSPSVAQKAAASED
Sequence of 3',5'-cyclic-AMP phosphodiesterase 4C (Q08493 whole entry): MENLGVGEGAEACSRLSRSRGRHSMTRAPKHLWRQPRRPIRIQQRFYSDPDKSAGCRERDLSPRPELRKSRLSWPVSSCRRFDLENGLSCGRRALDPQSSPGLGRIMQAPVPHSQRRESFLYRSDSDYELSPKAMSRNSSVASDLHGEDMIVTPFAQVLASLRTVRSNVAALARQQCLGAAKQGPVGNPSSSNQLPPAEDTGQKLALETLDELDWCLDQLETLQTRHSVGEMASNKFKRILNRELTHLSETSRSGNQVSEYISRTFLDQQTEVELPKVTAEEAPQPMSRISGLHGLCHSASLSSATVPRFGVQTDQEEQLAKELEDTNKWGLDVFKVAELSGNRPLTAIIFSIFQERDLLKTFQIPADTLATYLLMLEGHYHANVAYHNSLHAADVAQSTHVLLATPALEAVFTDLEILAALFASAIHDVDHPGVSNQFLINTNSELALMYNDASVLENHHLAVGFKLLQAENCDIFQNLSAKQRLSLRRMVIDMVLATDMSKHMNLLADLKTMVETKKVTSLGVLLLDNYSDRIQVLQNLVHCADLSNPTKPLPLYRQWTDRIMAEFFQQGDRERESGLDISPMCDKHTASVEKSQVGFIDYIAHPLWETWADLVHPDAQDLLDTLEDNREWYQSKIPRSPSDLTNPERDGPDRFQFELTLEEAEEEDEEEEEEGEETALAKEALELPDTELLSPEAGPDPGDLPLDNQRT
Sequence of 3',5'-cyclic-AMP phosphodiesterase 7B (Q9NP56 whole entry): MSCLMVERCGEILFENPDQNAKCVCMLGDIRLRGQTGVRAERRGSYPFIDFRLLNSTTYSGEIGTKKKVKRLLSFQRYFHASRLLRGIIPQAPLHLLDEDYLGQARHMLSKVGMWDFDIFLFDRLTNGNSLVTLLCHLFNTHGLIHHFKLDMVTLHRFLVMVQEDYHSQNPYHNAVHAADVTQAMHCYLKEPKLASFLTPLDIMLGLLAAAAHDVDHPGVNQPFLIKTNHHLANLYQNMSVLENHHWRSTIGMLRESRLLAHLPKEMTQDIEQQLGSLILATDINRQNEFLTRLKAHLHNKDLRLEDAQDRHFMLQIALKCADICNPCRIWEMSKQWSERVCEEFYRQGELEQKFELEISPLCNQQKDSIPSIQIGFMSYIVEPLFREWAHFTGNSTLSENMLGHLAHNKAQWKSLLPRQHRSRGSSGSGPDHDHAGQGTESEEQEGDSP

| SMILES | pIC50 [1] | pIC50 [2] | also measured |
| --- | --- | --- | --- |
| C[C@@H]1CN(Cc2ccc(C(F)(F)F)nc2)C[C@H]1c1nc2c(cnn2C2CCCC2)c(=O)[nH]1 | 7.80 | 6.72 |  |
| C[C@@H]1CN(Cc2ccc3nccnc3c2)C[C@H]1c1nc2c(cnn2C2CCCC2)c(=O)[nH]1 | 8.74 | 7.30 | pIC50 [3]: < 6.00; pIC50 [4]: < 6.00; pIC50 [5]: < 6.00; pIC50 [6]: 6.46; pIC50 [7]: 6.90; pIC50 [8]: < 6.00; pIC50 [9]: < 6.00; pIC50 [10]: < 6.00; pIC50 [11]: < 6.00; Kp [12]: 1.4; Activity (Mus musculus [13]): Dose-dependent effect; Activity (Mus musculus [14]): 145%; Activity (Mus musculus [15]): 215%; Activity (Mus musculus [16]): 110%; Activity (Mus musculus [17]): 119% |
| Cn1cc(-c2ccncc2)c(-c2ccc(OCc3ccc4ccccc4n3)cc2)n1 |  |  | Activity [18]: 2.1 nM |
| C[C@H]1CN(Cc2ccc3nccnc3c2)C[C@@H]1c1nc2c(cnn2C2CCCC2)c(=O)[nH]1 (relative stereo) | 8.72 | 7.14 |  |
| C[C@@H]1CN(Cc2cn3ccccc3n2)C[C@H]1c1nc2c(cnn2C2CCCC2)c(=O)[nH]1 (relative stereo) | 7.92 | 6.66 |  |
| CC(C)n1ncc2c(=O)[nH]c([C@@H]3CN(Cc4ccccc4)C[C@H]3C)nc21 (relative stereo) |  | 5.68 |  |
| C[C@@H]1CN(Cc2ccccc2)C[C@H]1c1nc2c(cnn2C2CCCC2)c(=O)[nH]1 (relative stereo) | 7.20 | 6.01 |  |
| Cc1cccc(CN2C[C@@H](C)[C@H](c3nc4c(cnn4C4CCCC4)c(=O)[nH]3)C2)c1 (relative stereo) | 7.40 | 6.25 | IC50 ([1]; read-out: pIC50 (converted)): 38 nM |
| COc1ccc(CN2C[C@@H](C)[C@H](c3nc4c(cnn4C4CCCC4)c(=O)[nH]3)C2)cn1 (relative stereo) | 7.54 | 6.57 |  |
| Cc1cnc(CN2C[C@@H](C)[C@H](c3nc4c(cnn4C4CCCC4)c(=O)[nH]3)C2)cn1 (relative stereo) | 7.82 | 6.68 |  |
| Cc1cc(CN2C[C@@H](C)[C@H](c3nc4c(cnn4C4CCCC4)c(=O)[nH]3)C2)n(C)n1 (relative stereo) | 7.96 | 6.70 |  |
| CC(C)Cn1ncc2c(=O)[nH]c([C@@H]3CN(Cc4ccccc4)C[C@H]3C)nc21 (relative stereo) | 6.82 | 5.82 |  |
| Cc1ncc(CN2C[C@@H](C)[C@H](c3nc4c(cnn4C4CCCC4)c(=O)[nH]3)C2)cn1 (relative stereo) | 7.96 | 6.40 |  |
| C[C@@H]1CN(Cc2ccccn2)C[C@H]1c1nc2c(cnn2C2CCCC2)c(=O)[nH]1 (relative stereo) | 6.70 | 5.89 |  |
| Cc1cc(CN2C[C@@H](C)[C@H](c3nc4c(cnn4C4CCCC4)c(=O)[nH]3)C2)no1 (relative stereo) | 7.96 | 6.96 |  |
